How the values were obtained:
[1] = system: Rabbit #1 polyclonal antibody (Rapa-42-DVS-KLH immunogen); assay: Inhibition ELISA of rabbit #1 polyclonal serum; format: binding; parameters: concentration or dose not given beside the values; conditions: Rapa antigen coated ELISA plate
Protocol: (§1) Inhibition ELISA Protocol
(§2) 1. Use Falcon® Pro-bind™ inununoplates.
(§3) 2. Dilute coating antigen to 1 μg/mL in carbonate-bicarbonate buffer.
(§4) Add 100 μL per well and incubate overnight at 4° C.
(§5) 3. On the same day prepare inhibiting antigen tubes. Aliquot antibodies into glass test tubes. Prepare appropriate antigen concentration in ethanol and add to aliquoted antibody at 10 μL ethanol solution/250 μL antibody.
(§6) Vortex tubes and incubate overnight at 4° C.
(§7) 4. Shake out wells and wash 3× with 200 μL PBS/0.05% TWEEN™ (polyoxyethylene-sorbitol) (v/v) per well.
(§8) 5. Add 200 μL blocking buffer per well (PBS/2% BSA (w/v)).
(§9) Incubate 60 min at room temperature.
(§10) 7. Transfer contents of inhibition tubes to antigen-coated plate, 100 μL per well. Incubate 60 min at 37° C.
(§11) 9. […] Add 100 μL per well and incubate at 37° C. for 60 min.
(§12) 11. […] Add 100 μL per well and incubate in the dark at room temperature. Absorbance can be read at 405 nm at approximately 15-min intervals.

[2] = system: Chicken polyclonal antibody (IgY, Rapa-42-DVS-KLH immunogen); assay: Inhibition ELISA of chicken IgY prep; format: binding; parameters: concentration or dose not given beside the values; conditions: Rapa antigen coated ELISA plate
Protocol: as §1, §2, §3, §4, §5, §6, §7, §8, §9, §10, §11, §12

[3] = system: MoAb R-1-1; assay: Inhibition ELISA of MoAb R-1-1; format: binding, mouse; parameters: concentration or dose not given beside the values; conditions: tissue culture supernatant
Protocol: as §1, §2, §3, §4, §5, §6, §7, §8, §9, §10, §11, §12
(§13) To further characterize the reactivity of monoclonal antibodies from various clones, inhibition ELISA were performed.

[4] = system: MoAb R-1-5; assay: Inhibition ELISA of MoAb R-1-5; format: binding, mouse; parameters: concentration or dose not given beside the values; conditions: tissue culture supernatant
Protocol: as §1, §2, §3, §4, §5, §6, §7, §8, §9, §10, §11, §12, §13

[5] = system: MoAb R-2-2; assay: Inhibition ELISA of MoAb R-2-2; format: binding, mouse; parameters: concentration or dose not given beside the values; conditions: tissue culture supernatant
Protocol: as §1, §2, §3, §4, §5, §6, §7, §8, §9, §10, §11, §12, §13

[6] = system: MoAb R-3-1; assay: Inhibition ELISA of MoAb R-3-1; format: binding, mouse; parameters: concentration or dose not given beside the values; conditions: tissue culture supernatant
Protocol: as §1, §2, §3, §4, §5, §6, §7, §8, §9, §10, §11, §12, §13

[7] = system: Mouse polyclonal antibody Rapa-DVS #7; assay: Inhibition ELISA of mouse polyclonal serum Rapa-DVS #7; format: binding; parameters: concentration or dose not given beside the values
Protocol: as §1, §2, §3, §4, §5, §6, §7, §8, §9, §10, §11, §12

[8] = system: Mouse polyclonal antibody Rapa-DVS #9; assay: Inhibition ELISA of mouse polyclonal serum Rapa-DVS #9; format: binding; parameters: concentration or dose not given beside the values
Protocol: as §1, §2, §3, §4, §5, §6, §7, §8, §9, §10, §11, §12

[9] = system: MoAb R-4-1; assay: Inhibition ELISA of MoAb R-4-1; format: binding, mouse; conditions: for Percent inhibition of MoAb R-4-1: tissue culture supernatant
Protocol: as §1, §2, §3, §4, §5, §6, §7, §8, §9, §10, §11, §12

[10] = system: MoAb R-4-7; assay: Inhibition ELISA of MoAb R-4-7; format: binding, mouse; conditions: for Percent inhibition of MoAb R-4-7: tissue culture supernatant
Protocol: as §1, §2, §3, §4, §5, §6, §7, §8, §9, §10, §11, §12

[11] = system: MoAb R-5-3; assay: Inhibition ELISA of MoAb R-5-3; format: binding, mouse; conditions: for Percent inhibition of MoAb R-5-3: tissue culture supernatant
Protocol: as §1, §2, §3, §4, §5, §6, §7, §8, §9, §10, §11, §12

[12] = system: Mouse polyclonal antibody Rapa-27 #12 (Rapa-27-ox-DVS-KLH immunogen); assay: Inhibition ELISA of mouse polyclonal serum Rapa-27 #12; parameters: concentration or dose not given beside the values; conditions: binding to Rapa-27-HSA
Protocol: as §1, §2, §3, §4, §5, §6, §7, §8, §9, §10, §11, §12

[13] = system: MoAb R-6-2; assay: Inhibition ELISA of MoAb R-6-2; format: binding, mouse
Protocol: as §1, §2, §3, §4, §5, §6, §7, §8, §9, §10, §11, §12

[14] = system: MoAb R-6-3; assay: Inhibition ELISA of MoAb R-6-3; format: binding, mouse
Protocol: as §1, §2, §3, §4, §5, §6, §7, §8, §9, §10, §11, §12

[15] = system: lymphocytes; assay: In vitro mixed lymphocyte reaction (MLR) assay, two-way lymphocyte proliferation; format: cell-based; conditions: 3H-thymidine incorporation
Excerpt: The MLR assay is useful for identifying rapamycin metabolites with biological (immunosupressive) activity and to quantify this activity relative to the immunosuppressive activity of the parent rapamycin molecule.
An example of a two-way lymphocyte proliferation assay procedure useful for this purpose is as follows:
1. Collect blood from two individuals (20 mls each) and isolate lymphocytes using Ficoll-Paque™ (polysucrose and sodium diatrizoate) (Pharmacia Biotech).
2. Count lymphocytes at 1:10 dilution in 2% acetic acid (v/v).
3. Prepare 10 mls of each lymphocyte populations (A+B) at 1×10^6 cells/ml in DMEM/20% FCS (v/v).
4. Set up a 96 well sterile tissue culture plate, flat bottom (Sarstedt, cat # 83.1835). To each well add:
5. Aliquot 100 μl per well lymphocyte population A
6. Aliquot 100 μl per well lymphocyte population B
7. Aliquot 20 μl per well of drug (rapamycin and rapamycin metabolites M1-5) serially diluted 0 to 1000 μg/L in triplicate in DMEM with no supplements.
8. […]
10. […] Wash cells 3× with 1.0-ml sterile distilled water.
Note: All procedures are done using sterile techniques in a biological flow hood.
11. Place filters in Scintilation vials and add 1.5 mls of ScintiSafe Plus™ 50% scintillation fluid (Fisher, cat #SX-25-5).
12. Measure the amount of radioactivity incorporated in the lymphocytes using a beta counter (Micromedic System Inc., TAURUS™ Automatic Liquid Scintillation Counter) for 1.0 minute.
13. Calculate averages and standard deviations for each drug and express results as: [formula]

[16] = Relative concentrations of Rapa metabolites in pooled whole blood patient samples (LC/MS); format: in vivo; conditions: Rapa = 1
Excerpt: No individual metabolite is found at a concentration greater than 20% of the Rapa parent level.

Compound | Percent inhibition of Rabbit #1 polyclonal antibody [1] | Percent inhibition of Chicken polyclonal antibody [2] | Percent inhibition of MoAb R-1-1 [3] | Percent inhibition of MoAb R-1-5 [4] | Percent inhibition of MoAb R-2-2 [5] | Percent inhibition of MoAb R-3-1 [6] | Percent inhibition of mouse polyclonal antibody Rapa-DVS #7 [7] | Percent inhibition of mouse polyclonal antibody Rapa-DVS #9 [8] | Percent inhibition of MoAb R-4-1 [9] | Percent inhibition of MoAb R-4-7 [10] | Percent inhibition of MoAb R-5-3 [11] | Percent inhibition of mouse polyclonal antibody Rapa-27 #12 [12] | further results
C=CCC1C=C(C)CC(C)CC(OC)C2OC(O)(C(=O)C(=O)N3CCCCC3C(=O)OC(C(C)=CC3CCC(O)C(OC)C3)C(C)C(O)CC1=O)C(C)CC2O (centres unmarked) [FK met 1, 13-O-Demethyl] | 0% | 0% | 46% | 24% | 19% | 0% |  |  |  |  |  |  | 
C=CCC1C=C(C)CC(C)CC(O)C2OC(O)(C(=O)C(=O)N3CCCCC3C(=O)OC(C(C)=CC3CCC(O)C(OC)C3)C(C)C(O)CC1=O)C(C)CC2OC (centres unmarked) [FK met 2, 15-O-Demethyl] | 0% | 0% | 57% | 36% | 16% | 0% |  |  |  |  |  |  | 
C=CCC1C=C(C)CC(C)CC(OC)C2OC(O)(C(=O)C(=O)N3CCCCC3C(=O)OC(C(C)=CC3CCC(O)C(O)C3)C(C)C(O)CC1=O)C(C)CC2OC (centres unmarked) [FK met 3, 31-O-Demethyl] | 0% | 0% | 45% | 26% | 9% | 0% |  |  |  |  |  |  | 
C=CCC1C=C(C)CC(C)CC(OC)C2OC(O)(C(=O)C(=O)N3CCCCC3C(=O)OC(C(C)=CC3CCC(O)C(O)C3)C(C)C(O)CC1=O)C(C)CC2O (centres unmarked) [FK met 4, 13,3 1-Didemethyl] | 0% | 13% | 53% | 38% | 13% | 0% |  |  |  |  |  |  | 
C=CCC1C=C(C)CC(C)CC(O)C2OC(O)(C(=O)C(=O)N3CCCCC3C(=O)OC(C(C)=CC3CCC(O)C(O)C3)C(C)C(O)CC1=O)C(C)CC2OC (centres unmarked) [FK met 5, 15,3 1-O-Didemethyl] | 0% | 0% | 46% | 26% | 13% | 0% |  |  |  |  |  |  | 
C=CC[C@@H]1/C=C(\C)C[C@H](C)C[C@H](OC)[C@H]2O[C@@](O)(C(=O)C(=O)N3CCCC[C@H]3C(=O)O[C@H](/C(C)=C/[C@@H]3CC[C@@H](O)[C@H](OC)C3)[C@H](C)[C@@H](O)CC1=O)[C@H](C)C[C@@H]2OC [FK, FK-506] | 0% | 0% | 43% | 33% | 16% | 1% | 5.6% | 13.0% | 8% | 4% | 4% | 11% | Percent inhibition of MoAb R-6-2 [13]: 64%; Percent inhibition of MoAb R-6-3 [14]: 53%
CO[C@@H]1C[C@H](C[C@@H](C)[C@@H]2CC(=O)[C@H](C)/C=C(\C)[C@@H](O)[C@@H](OC)C(=O)[C@H](C)C[C@H](C)/C=C/C=C/C=C(\C)[C@@H](O)C[C@@H]3CC[C@@H](C)[C@@](O)(O3)C(=O)C(=O)N3CCCC[C@H]3C(=O)O2)CC[C@H]1O [M3, 7-O-Demethyl Rapamycin] | 15% | 35% | 32% | 56% | 26% | 92% | 28.3% | 30.8% | 85% | 67% | 37% |  | Percent inhibition of mouse polyclonal antibody Rapa-27 #12 ([12]; listed as Met 3): 43%; Percent inhibition of mouse polyclonal antibody Rapa-27 #12 ([12]; listed as metabolite # 3): 42%; Mixed Lymphocyte Reaction IC50, Mean [15]: 2.85 ng/mL; Relative Concentration in whole blood [16]: 0.10
CO[C@H]1C[C@@H]2CC[C@@H](C)[C@@](O)(O2)C(=O)C(=O)N2CCCC[C@H]2C(=O)O[C@H]([C@H](C)C[C@@H]2CC[C@@H](O)[C@H](O)C2)CC(=O)[C@H](C)/C=C(\C)[C@@H](O)[C@@H](OC)C(=O)[C@H](C)C[C@H](C)/C=C/C=C/C=C/1C [M4, 41-O-Demethyl Rapamycin] | 28% | 18% | 30% | 57% | 71% | 96% | 40.1% | 28.6% | 82% | 54% | 47% | 37% | Mixed Lymphocyte Reaction IC50, Mean [15]: 5.9 ng/mL; Relative Concentration in whole blood [16]: 0.10
CO[C@H]1C[C@@H]2CC[C@@H](C)[C@@](O)(O2)C(=O)C(=O)N2CCCC[C@H]2C(=O)O[C@H]([C@H](C)C[C@@H]2CC[C@@H](O)[C@H](O)C2)CC(=O)[C@H](C)/C=C(\C)[C@@H](O)[C@@H](O)C(=O)[C@H](C)C[C@H](C)/C=C/C=C/C=C/1C [M5, 32,41-Demethyl Rapamycin] | 16% | 35% | 29% | 44% | 10% | 94% | 39.8% | 37.3% | 88% | 87% | 46% | 0% | Mixed Lymphocyte Reaction IC50, Mean [15]: 4.67 ng/mL; Relative Concentration in whole blood [16]: 0.02
CO[C@H]1C[C@@H]2CC[C@@H](C)[C@@](O)(O2)C(=O)C(=O)N2CCCC[C@H]2C(=O)O[C@H]([C@H](C)C[C@@H]2CC[C@@H](OCCO)[C@H](OC)C2)CC(=O)[C@H](C)/C=C(\C)[C@@H](O)[C@@H](OC)C(=O)[C@H](C)C[C@H](C)/C=C/C=C/C=C/1C [RAD] |  |  |  |  |  |  |  |  |  |  |  |  | Inhibition of MoAb R-4-1 (in words) ([9]; purified MoAb, increasing concentrations of Rapa or RAD, FIG. 3A): inhibited; Inhibition of MoAb R-4-7 (in words) [10]: inhibited; Inhibition of MoAb R-5-3 (in words) ([11]; purified MoAb, increasing concentrations of Rapa or RAD, FIG. 3B): inhibited; Percent inhibition of MoAb R-6-2 [13]: 70%; Percent inhibition of MoAb R-6-3 [14]: 58%
keyhole limpet hemocyanin [KLH] | 0% | 0% | 3% | 10% | 16% | 0% | 7.8% | 12.5% |  |  |  | 0% | 

Reference: patent US6709873B1, “Method for production of antibodies to specific sites of rapamycin” (Isodiagnostika Inc., priority 1997, dated 2004)
